The text below walks through data of US7037896B1, “Peptide (VIRIP) which inhibits a circulating virus in humans and the use thereof” (priority 1999, dated 2006).

One series deals with HIV-1 NL43. The experiment in a line: Replication of HIV-1 in human PBMCs (reverse transcriptase test in culture supernatant). Type of series: cell-based. How it is done:
FIG. 1: Purification of VIRIP. The purification steps are described in the text. (b) Inhibition of the replication of HIV-1 NL43 in human blood lymphocytes by fraction 1–20. The cells were stimulated with PHA for 2 days, infected with virus stocks containing 10 ng of p24, and the reverse transcriptase activity determined in the culture supernatant 9 days after the infection. The result of the infection experiments is shown.
The isolation of VIRIP was effected on the basis of its inhibitory action on the replication of HIV-1 in an assay which measures the replication of HIV-1 in human peripheral blood lymphocytes (PBMCs). Thus, aliquots of each of the individual chromatographic fractions described under Example 1 were freeze-dried and then subjected to the biological assay in amounts of from 10 ml up to 1 l of hemofiltrate equivalent. The respective fractions which gave a positive signal were subjected to further purification.
Human peripheral blood lymphocytes (PBMCs) were obtained from whole blood using density gradient centrifugation in Ficoll. The cells were prestimulated for two days (RPMI medium, 20% FKS, 100 U/ml IL-2, 5 μg/ml phytohemagglutinin [PHA]). Then, the PBMCs were sedimented by centrifugation at 1200 rpm for 5 min, taken up in PHA-free RPMI medium (20% FKS, 100 U/ml IL-2) and seeded in 96-well flat-bottomed plates in a volume of 80 μl in concentrations of about 150,000 cells per well.
On the following day, aliquots of the individual chromatographic steps described under Example 1 were supplied in amounts of from 10 ml up to 1 l of hemofiltrate equivalent. Thus, the freeze-dried chromatographic fractions were taken up in water and pipetted to the PBMCs in various concentrations in a total volume of 10 μl. After 2 hours of incubation at 37° C., the cells were infected by the addition of 10 μl of HIV-1 virus stock containing from 0.1 to 10 ng of p24 antigen. Subsequently, 50 μl of the culture medium was replaced every 2 days by fresh medium which additionally contained the corresponding peptide fractions. The production of HIV particles at different times (after 9, 12 and 18 days) from the infection of the cells was quantified in a reverse transcriptase (RT) test. The RT test measures the activity of reverse transcriptase in a cell-free culture supernatant, which is thus a measure of the production of viral particles and viral replication in the PBMC cultures. Alternatively, the viral production was determined in p24 antigen ELISA.

For series [1], the system named is chimeric onco-lentivirus (Mu-HIV) carrying the MLV envelope protein. The experiment in a line: Replication of chimeric onco-lentivirus in human PBMC (RT activity). Type of series: cell-based. On the procedure: (§1) FIG. 5: VIRIP inhibits the replication of various HIV isolates with different cell- and co-receptor-tropisms in human PBMC. Prestimulated PBMC were treated with the various HIV-1 isolates (10 ng of p27 antigen) or a chimeric onco-lentivirus (Mu-HIV) in the presence of the VIRIP concentrations shown. Viral replication was determined by measuring the reverse transcriptase activity in the cell culture supernatant.
(§2) The inhibitory effects on R5-tropic forms were lesser. A chimeric onco-lentivirus (Mu-HIV) carrying the MLV envelope protein was not inhibited (FIG. 5, bottom).

The next series relates to blood cells. As to the kind of experiment: Cytotoxic effect on the blood cells.
The subject of series [2] is X4/R5-tropic HIV-1 NL4-3 V3 variants. The experiment in a line: Infection of P4R5 indicator cells with NL4-3 V3 recombinants, X4/R5-tropic variants. The class given is cell-based. To be noted: 50 ng of p24, luciferase test. The source says:
(§3) FIG. 3: The V3 loop of the X4-tropic NL43 clone was exchanged for the corresponding sequences of the HIV-1 isolates shown. Thus, the recombinant viruses are distinguished exclusively in the V3 loop. In the right panel, the observed inhibitors effect (%), the overall charge of the V3 region and the co-receptor-tropism are shown. At the bottom, the consensus sequence (SEQ ID NO: 6) is shown.
(§4) The V3 loop of the X4-tropic NL4-3 clone was replaced by the corresponding region of a number of primary HIV-1 isolates. […] To determine the inhibitory influence of VIRIP on these variants, P4R5 indicator cells were examined. P4R5 cells express both CCR5 and CXCR4 and contain the luciferase gene under the control of HIV-1 LTR. This cell line was infected with the various recombinant viruses (50 ng of p24) in the presence and absence of VIRIP, and the infection was quantified using the luciferase test.

Series [3] relates to X4-tropic HIV-1 P59S isolate. The experiment in a line: Dose-dependent inhibition of infection of P4R5 indicator cells, P59S isolate. Type of series: cell-based. To be noted: 2 days after infection. On the procedure: (§5) P4R5 indicator cells were infected in the presence of the shown concentrations of VIRIP, and the β-galactosidase activity was measured in the cell extract 2 days after the infection.
(§6) In order to quantify the inhibitory effect of the substance according to the invention more precisely, P4R5 indicator cells were infected with the X4-tropic HIV-1 P59S isolate and the R5-tropic 92TH isolate in the presence of different doses of VIRIP.

A further series deals with R5-tropic 92TH isolate. As to the kind of experiment: Dose-dependent inhibition of infection of P4R5 indicator cells, 92TH isolate. The class given is cell-based, HIV-1. On the procedure: as §5, §6
The next series relates to HIV-1. To be noted: three days after infection. How it is done: FIG. 2: Influence of synthetic VIRIP on the infection of CEMx174-SEAP indicator cells (left) and replication in human PBMCs (right). The cells were infected and cultured in the presence of the stated amounts of VIRIP. To determine the viral entry, the activity of the secreted alkaline phosphatase was determined in the culture supernatant of the CEMx174-SEAP cells three days after the infection.

The subject of the next series is R5-tropic forms. The experiment in a line: Replication of HIV isolates in human PBMC (RT activity), R5-tropic forms. To be noted: compared with X4-tropic and dual-tropic variants. The class given is cell-based. On the procedure: as §1, §2
A further series relates to X4-tropic HIV variants. As to the kind of experiment: Replication of HIV isolates in human PBMC (RT activity), X4-tropic variants. Type of series: cell-based. How it is done:
as §1, §2

For series [4], the system named is R5-tropic HIV-1 NL4-3 V3 variants. The experiment in a line: Infection of P4R5 indicator cells with NL4-3 V3 recombinants, R5-tropic variants. To be noted: 50 ng of p24, luciferase test. The class given is cell-based.
Source text: as §3, §4

The subject of another series is dual-tropic HIV variants. As to the kind of experiment: Replication of HIV isolates in human PBMC (RT activity), dual-tropic variants. Type of series: cell-based. How it is done: as §1, §2
Series [5] relates to X4-tropic HIV-1 NL4-3 V3 variants. As to the kind of experiment: Infection of P4R5 indicator cells with NL4-3 V3 recombinants, X4-tropic variants. The class given is cell-based.
Source text: as §3, §4

“LEAIPMSIPPEVKFNKPFVF [VIRIP, 20-amino-acid fragment (amino acids 353 to 372) of human alpha-1-antitrypsin, isolated from hemofiltrate and also chemically synthesized]”: the “inhibition of the replication of HIV-1 in PBMCs” value in the series on HIV-1 NL43 (listed as VIRIP from hemofiltrate) is “effectively block”; in the series with HIV-1 NL43 (listed as VIRIP purified from hemofiltrate), “dose-dependent inhibition”; in the series on HIV-1 NL43 (listed as chemically synthesized VIRIP) it was “dose-dependent inhibition”; in the series with HIV-1 NL43 (listed as synthetically prepared VIRIP), “dose-dependent suppression”; with HIV-1 NL43 (listed as synthetically prepared peptide) it was “effectively block”. The “inhibition of chimeric onco-lentivirus (Mu-HIV)” value in series [1] was “not inhibited”. Also, the “cytotoxic effect on the blood cells” value in the series with blood cells was “does not exert any cytotoxic effect”. Besides, the “inhibition of X4/R5-tropic variants” value in [2] was “inhibited”. Also, in series [3], the “concentration inhibiting the HIV-1 P59S isolate by 50%” value was 40 µg/mL. The “concentration inhibiting the HIV-1 P59S isolate by 90%” value in series [3] was determined as 180 µg/mL. For the same sequence, in the series on R5-tropic 92TH isolate, the “concentrations required for inhibiting the 92TH isolate relative to P59S” value is given as “about twofold higher concentrations”. The “inhibition of the HIV-1 infection of CEMx174-SEAP indicator cells” value in the series with HIV-1 was “dose-dependent inhibition”. For the same sequence, the “inhibitory effects on R5-tropic forms” value in the series with R5-tropic forms is listed as “lesser”. Also, the “suppression of replication of X4-tropic HIV variants” value with X4-tropic HIV variants (100 μg/ml) is “at least partially”; in the series on X4-tropic HIV variants (1000 μg/ml) it was “completely”. Further, the “inhibition of R5-tropic variants” value in series [4] was “inhibited”. The “suppression of replication of dual-tropic HIV variants” value in the series with dual-tropic HIV variants (100 μg/ml) is recorded as “at least partially”; in the series with dual-tropic HIV variants (1000 μg/ml), “completely”. Besides, the “efficiency of inhibition of X4-tropic variants having a strongly positively charged V3 loop as compared with R5-tropic or dual-tropic isolates” value in series [5] is reported as “inhibited more efficiently”. Further, in [5] (50 ng of p24, luciferase test), the “inhibition of X4-tropic variants” value is “inhibited”.
